Data set [1] has as its target T1, Aβ40 (Homo sapiens, UniProt P05067).
T1 construct: Lyophilized Aβ40 was monomerized following previous procedures; purchased GenScript
In words: Thioflavin T (ThT) fluorescence assay of Aβ40 aggregation. In kind it is biochemical. As to conditions: for relative aggregation of Aβ40 (ThT fluorescence normalized to Aβ40 alone): equimolar 10 µM complex and Aβ40, 10 µM ThT, final 6 h time point, 37 °C; for Ranking ThT: scale 1 to 5 (1 = best, 5 = worst). The protocol: All PBS used in the assay was filtered through a 0.20 μm Titan 3 syringe filter prior to use. The Ru stock solutions initially dissolved about 1.5 mg of each Ru complex in 100 µL DMSO and diluted it to 10 mL with PBS. Thioflavin T (ThT) was prepared in the same manner as the Ru complexes but was filtered prior to use in the assay. Lyophilized Aβ40 was monomerized following previous procedures and stored at −20 °C until use. When removed from the freezer, peptide samples were held on ice for 20 min prior to preparation for the assay. The Aβ40 was mixed with a 15 μL aliquot of DMSO and gently flicked to initiate dissolution. Next, 135 μL PBS was added, and the sample was sonicated until the solution was clear. The concentration of the Aβ40 stock solution was determined using an Implen NanoPhotometer N50 at λ = 280 nm with an extinction coefficient of 1490 M^−1 cm^−1 [27]. Samples were prepared in a 96-well plate by the sequential addition of PBS, Ru, ThT, and Aβ, where the final volume was 150 μL, and the analyte concentrations were 10 μM each. Thioflavin T (ThT) fluorescence was measured using the SpectraMax M3 plate reader with λex = 440 nm and λem = 480 nm. Measurements were taken every 30 min for a total of 6 h, with shaking occurring between each reading.
Each of the prepared Ru complexes was mixed with an equimolar amount of Aβ40 (10 µM), along with ThT (10 µM). Each sample was prepared in triplicate, loaded onto a microwell plate, and incubated at 37 °C with constant agitation to promote aggregation, with fluorescence measurements taken every 30 min for up to 6 h. The resultant fluorescence signals were normalized to the last time point for the samples of Aβ40 alone. After 4 h of incubation, a sharp increase in fluorescence for the peptide alone was observed, signifying that aggregation was occurring (Figure 5). […] Remarkably, the activity shown by RuBA is among the greatest we have measured thus far across a variety of Ru complexes. To confirm this activity, the samples from the ThT assay were subjected to additional analysis, as described below.
Figure 5 ThT fluorescence results following the incubation of equimolar solutions (10 μM) of Aβ40 with the Ru complexes for up to 6 h at 37 °C. The signals were normalized to the positive control of the free peptide in solution at the 6 h time point. The error bars represent the standard deviation observed for each data point for the respective samples.

Data set [2] relates to pheochromocytoma cells (PC-12). As to the kind of experiment: MTT cell viability assay, PC-12 cells. In kind it is cell-based, Rattus norvegicus. As to conditions: 24 h. The method, then: Cultures of adherent Rattus norvegicus pheochromocytoma cells (PC-12; ATCC CRL-1721) and axenic Rattus norvegicus C6 glioma cells (ATTC CCL-107) were prepared as previously reported. The cells were cultured using Dulbecco’s Modified Eagle’s medium with low glucose, sodium pyruvate, and without phenol red or L-glutamine (DMEM REF:11054-020; GIBCO; Waltham, MA, USA) and supplemented with 1.5% (v/v) heat-inactivated fetal bovine serum (GIBCO; Waltham, MA, USA), 10% (v/v) sterile filtered horse serum (Sigma-Aldrich, St. Louis, MO, USA), and 4% sterile L-glutamine (Sigma-Aldrich; St. Louis, MO, USA). […]
For the viability assays, both cell types were grown to confluency before being trypsinized, resuspended in 1 mL of complete medium per confluent well of a 6-well plate, diluted ten-fold, and then counted with a Scepter 2.0 Handheld Automated Cell Counter (Millipore, Burlington, MA, USA) affixed with a 60 µm sensor. […]
To assess the viability of the cells with and without Ru additions, cell viability tests were performed using an MTT assay following the procedure of Mosmann with the following variations: Before adding the MTT reagent (5 mg/mL water), 90 µL of the complete medium was removed from each well, and 90 µL of incomplete medium was added. […] The absorbance values were recorded using a Bio-Rad® Microplate Reader Benchmark at 595 nm. […]
On the technique in general: Tetrazolium assays rely on reduction of a dye to a coloured formazan, in cell work by metabolically active cells.

The values below come from paper PMC12024814, “Ruthenium(II)–Arene Complexes with a 2,2′-Bipyridine Ligand as Anti-Aβ Agents” (Biomolecules, 2025).

T1 sequence (P05067 672-711 limits assumed): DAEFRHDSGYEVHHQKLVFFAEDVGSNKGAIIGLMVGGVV

Regarding `Cc1ccc(C(C)C)cc1.F[P-](F)(F)(F)(F)F.[Cl-].[Ru+2].c1ccc(-c2ccccn2)nc1` [RuB, [Ru(η^6-p-cymene)(2,2′-bipyridine)Cl]PF6], in data set [1], the “relative aggregation of Aβ40 (ThT fluorescence normalized to Aβ40 alone)” value was 9.0% ± 2.3% and the “Ranking ThT” value came out at 2.

Take `Cc1ccc(C(C)C)cc1.Cc1ccnc(-c2cc(C)ccn2)c1.F[P-](F)(F)(F)(F)F.[Cl-].[Ru+2]` [RuBMe, [Ru(η^6-p-cymene)(4,4′-dimethyl-2,2′-bipyridine)Cl]PF6]: in data set [1], the “Ranking ThT” value amounted to 5.

For “[Ru(η^6-p-cymene)(4,4′-di-tert-butyl-2,2′-bipyridine)Cl]PF6 [RuBtB]”, in data set [1], the “relative aggregation of Aβ40 (ThT fluorescence normalized to Aβ40 alone)” value is 14.3% ± 0.6% and the “Ranking ThT” value worked out at 3. For the same molecule, in data set [2] (20 and 40 µM), the “toxicity (MTT)” value is recorded as “substantial toxicity”. Moreover, the “IC50 (cell viability)” value in data set [2] (tested 0.2–40 µM) is “below the concentrations evaluated”.

“[Ru(η^6-p-cymene)(4,4′-diamino-2,2′-bipyridine)Cl]PF6 [RuBA]”: the “Ranking ThT” value in data set [1] is on record as 1.

“[Ru(η^6-p-cymene)(4,4′-dimethoxy-2,2′-bipyridine)Cl]PF6 [RuBMeO]”: in data set [1], the “relative aggregation of Aβ40 (ThT fluorescence normalized to Aβ40 alone)” value is recorded as 16.1% ± 6.9% and the “Ranking ThT” value was 4.
